Assay results published in patent US20190167640A1, “METHODS FOR TREATMENT OF MUSCULAR DYSTROPHIES” (Akashi Therapeutics, Inc., priority 2013, published 2019).
Entries after “also recorded” stand apart in the source; their conditions may differ.

What was measured:
[1] = tested on: diaphragm strips of exercised mdx mice; assay: Isometric contraction of diaphragm strips after in vivo treatment; conditions: for twitch tension of diaphragm strips: exercised mdx mice, Compound (I) 30 mg/kg s.c., nandrolone 5 mg/kg s.c., PDN 1 mg/kg i.p., 6 days/week, 4-6 weeks; for fatigue of diaphragm (drop of force after 5 repetitive tetani) / tetanic force of diaphragm: same treatments; for fatigue of diaphragm (drop of force after 5 repetitive tetani): 5 tetani at 100 Hz, 5 sec intervals; for tetanic force of diaphragm: vehicle-treated exercised mdx groups pooled together (FIG. 2B)
Description: Compound (I) and nandrolone were dissolved in 10% Ethanol/90% Corn Oil (Sigma-Aldrich) in order to have the final dosage needed in the volume of 0.1 ml/10 g body weight. PDN (from the commercial formulation URBASON) was diluted sterile water for injection (0.1 ml/10 g body weight). 40 mdx mice 5-6 weeks old (Charles River Italy for Jackson Lab) were first (at the beginning of the exercise/treatment period (Time 0)) randomized in groups homogeneous for body weight, fore limb strength and normalized force (fore limb strength/body weight), as follows: • 7 SEDENTARY MDX+VEHICLE (ethanol and corn oil) • 7 UNTREATED EXERCISED MDX+VEHICLE (ethanol and corn oil) • 9 EXERCISED MDX+Compound (I) 30 mg/kg • 8 EXERCISED MDX+Nandrolone 5 mg/kg • 3 EXERCISED MDX+VEHICLE (sterile water) • 6 EXERCISED MDX+PDN 1 mg/kg
The duration of the treatment was 4-6 weeks. At the end of 4 weeks, 34 mice remained on the protocol, as follows: • 7 SEDENTARY MDX+VEHICLE (ethanol and corn oil) • 7 UNTREATED EXERCISED MDX+VEHICLE (ethanol and corn oil) • 6 EXERCISED MDX+Compound (I) 30 mg/kg • 5 EXERCISED MDX+Nandrolone 5 mg/kg • 3 EXERCISED MDX+VEHICLE (sterile water) • 6 EXERCISED MDX+PDN 1 mg/kg
(§1) The chronic exercise consisted of 30 min running on horizontal treadmill at 12 m/min twice a week. Drug treatment started one day before the exercise protocol. At least 4 weeks of exercise were performed before starting the ex vivo experiments. In vivo parameters were monitored weekly throughout. Age of the mice at the time of ex-vivo experiments: 9-12 weeks. The effectiveness of the test compounds was then evaluated ex vivo for: • Mechanical properties of EDL muscle and diaphragm strips by isometric contraction • Mechanical threshold of EDL muscle, i.e. the voltage threshold for fiber contraction, as an index of excitation-contraction coupling mechanism and calcium homeostasis (two microelectode “point” voltage clamp method) • Cable parameters and macroscopic ionic conductance (two microelectrode current clamp recordings) • Spectrophotometric determination of plasma level of creatine kinase (CK), as an index of sarcolemmal damage, lactate dehydrogenase (LDH) as an index of metabolic sufferance, reactive oxygen species, as a marker of oxidative stress • Morphometric analysis of gastrocnemious (GC) muscle and diaphragm
Standard isometric contraction measurements on both EDL muscle and diaphragm strips were obtained by electric field stimulation via two axial platinum wires. For each preparation, a preliminary stabilization procedure (for proper temperature equilibration and relaxation after handling) was followed by the determination of the optimal resting length, i.e. the resting tension that allowed the maximal tension to be elicited by 40V depolarizing steps of 0.2ms duration. The preparations were then allowed to rest for about 30 min before starting the recording procedure.
Twitch tension: 5 single twitches elicited by pulses of 40 V and 0.2 ms (every 30 sec)→determination of maximal twitch tension and contraction kinetic (time to peak and half relaxation time);
Force frequency curve: 450 ms trains of 0.2 ms 40V pulses from 10 to 140 Hz→determination of maximal tetanic tension and frequency for half-maximal activation (Hz50) Fatigue: 5 tetani at 100 Hz (450 ms) and 5 sec intervals→determination of % drop of tension

[2] = tested on: EDL muscle of exercised mdx mice; assay: Isometric and eccentric contraction of EDL muscle after in vivo treatment; conditions: same treatments; for fatigue of EDL (drop during the first 5 tetani): tetani at 5 sec intervals
[3] = tested on: EDL myofibers of exercised mdx mice; assay: Mechanical threshold of EDL muscle (two microelectrode point voltage clamp); type: in vivo; conditions: for mechanical threshold: potential (voltage threshold) for fiber contraction of EDL myofibers: Compound (I) 30 mg/kg, nandrolone 5 mg/kg, PDN 1 mg/kg, 6 days/week, 4 weeks, all pulse durations; for rheobase voltage of EDL muscles / time constant to reach the rheobase, EDL myofibers: same treatments; for rheobase voltage of EDL muscles: calculated from fit of strength-duration curve; for time constant to reach the rheobase, EDL myofibers: from fit of strength-duration curve
Description: as §1
Mechanical threshold (MT) is an electrophysiological index of excitation contraction-coupling and of calcium homeostasis (De Luca et al., JPET 2003; Fraysse et al., Neurobiol. Dis., 2004). The application of depolarizing voltage steps of increasing durations shifts the contraction for fiber contraction toward more negative potential until a constant rheobase voltage is reached. The rheobase voltage represents the voltage at which the calcium that is released from the sarcoplasmis reticulum and the calcium reuptaken are at the steady-state. A shift of rheobase voltage toward more negative potential, as occurring in dystrophic mdx EDL myofibers, is indicative of more calcium being available for contraction, either resulting from greater release or slower reuptake or higher basal cytosolic levels.
In FIG. 30A, the data, expressed as the means±S.E.M. from 14 to 30 values from 2 to 5 preparations, show the voltages for the contraction of EDL myofibres (mechanical threshold) at increasing pulse duration in wild-type mice (WT, black circles) and in mdx mice treated with either vehicle (corn oil and water; Mdx+VTOT, white circles), 30 mg/kg Compound (I) (white triangles), 5 mg/kg nandrolone (upside-down black triangles) or 1 mg/kg PDN (white rhombus). The drugs were given 6 days per week. […] For some data points, the standard error bar is not visible because it is smaller than the symbol size. In FIGS. 30B and 30C, the rheobase voltage, in mV and the time constant, in ms, with relative standard errors, have been calculated from the fit of data points of the voltage-duration curves in A. In FIG. 30D, the total resting membrane ionic conductances (gm) in μS/cm^2 of EDL muscle fibres of the same experimental groups described in A are shown. The bars represent the means±SEM from the number of 3-5 prep/25-37 fibres. For each parameter, the significant differences between groups were evaluated using ANOVA for multiple comparisons (F values) and the Bonferroni t-test post hoc correction. Significant differences were found for rheobase voltage (F>4; p<0.003) and gm (F>7; p<0.0002).
In FIG. 31A, the data, expressed as the means±S.E.M. from 27 to 41 values from 3 preparations, show the voltages for the contraction of EDL myofibres (mechanical threshold) at increasing pulse duration in wild type mice (WT, black circles) and in mdx mice treated with either corn oil (Mdx+V1, white circles) or Compound (I) at 0.3 (white square), 3 (black square) or 30 mg/kg (white triangles). The drugs were given 6 days per week. […] For some data points, the standard error bar is not visible because it is smaller than the symbol size. […]

[4] = tested on: EDL myofibers of exercised mdx mice; assay: Cable parameters and macroscopic ionic conductance of EDL myofibers (two microelectrode current clamp); type: in vivo; conditions: Compound (I) 30 mg/kg, nandrolone 5 mg/kg, PDN 1 mg/kg, 6 days/week, 4-6 weeks
Description: as §1
Passive cable properties are calculated for the spatial and temporal changes of membrane potential in response to a hyperpolarizing square current pulses. […]

[5] = tested on: exercised mdx mice; assay: Spectrophotometric determination of plasma creatine kinase, lactate dehydrogenase and reactive oxygen species; type: in vivo; conditions: same treatments
Description: as §1
A marked elevation of plasma creatine kinase is a typical diagnostic marker of muscular dystrophy. In parallel an increase in lactate dehydrogenase is also observed as a sign of metabolic sufferance while an increase on reactive oxygen species can occur as a result of ongoing oxidative stress. Generally, these biochemical indices are further aggravated by the exercise protocol. However, in the present study all the three parameters CK, LDH and ROS were particularly altered in the sedentary mdx mice and therefore no remarkable effect of exercise was observed.

[6] = tested on: diaphragm and GC muscle of exercised mdx mice; assay: Histology and morphometric analysis of gastrocnemius (GC) muscle and diaphragm; type: in vivo; conditions: preliminary morphometric analysis (FIG. 23)
Description: as §1
Representative pictures of histology profile of diaphragm and GC muscles in the various experimental conditions are shown in FIG. 22.

| SMILES | twitch tension of diaphragm strips [1] | fatigue of diaphragm (drop of force after 5 repetitive tetani) [1] | tetanic force of diaphragm [1] | frequency for half-maximal activation (Hz50) of EDL [2] | twitch/tetanus ratio of EDL [2] | mechanical threshold: potential (voltage threshold) for fiber contraction of EDL myofibers [3] | mechanical threshold: voltage threshold values of EDL myofibres ([3]; Compound (I) at 0.3, 3 or 30 mg/kg, 6 days per week, second study (up to 12 weeks), vs vehicle-treated mdx) | rheobase voltage of EDL muscles [3] | time constant to reach the rheobase, EDL myofibers [3] | membrane resistance (Rm) and total membrane ionic conductance (gm) of EDL myofibers [4] | lactate dehydrogenase (LDH) [5] | fatigue of EDL (drop during the first 5 tetani) [2] | creatine kinase (CK) [5] | fiber area of both normal and centronucleated fibers [6] | twitch tension of EDL [2] |
| --- | --- | --- | --- | --- | --- | --- | --- | --- | --- | --- | --- | --- | --- | --- | --- |
| CN1C(=O)N(c2ccc(C#N)c(C(F)(F)F)c2)C(=O)[C@@]1(CO)c1ccccc1 [Compound (I)] | greater than those of untreated ones and no more significantly different with respect to those of weight | protection was observed | significantly greater than those of untreated, although still lower than weight ones | no significant effects | no effect | significant shift of the potential for fiber contraction toward weight values; also recorded: significantly more positive | significantly more positive | almost overlapping that of weight | remarkably shorter than those of untreated exercised and not significantly different with respect to that of weight | effects comparable to that of PDN | slight, but not significant reduction |  |  |  |  |
| C[C@H]1C[C@@H]2[C@H]([C@@H](O)C[C@@]3(C)[C@H]2CC[C@]3(O)C(=O)CO)[C@@]2(C)C=CC(=O)C=C12 [PDN, α-methyl-prednisolone] | the two anabolic compounds exerted a greater protection than PDN | protection was observed | significantly greater than those of untreated, although still lower than weight ones | no significant effects | slight but not significant decrease | less effective than Compound (I); also recorded: significantly more positive |  | values intermediate between untreated mdx and weight | effect of Compound (I) on this parameter was greater than that of nandrolone and PDN | effect consistent with that observed in previous studies | lack of effect | partial recovery | lack of effect | increase |  |
| C[C@]12CC[C@H]3[C@@H](CCC4=CC(=O)CC[C@@H]43)[C@@H]1CC[C@@H]2O [nandrolone] | greater than those of untreated ones and no more significantly different with respect to those of weight |  | significantly greater than those of untreated, although still lower than weight ones | no significant effects | no effect | less effective than Compound (I); also recorded: significantly more positive |  | values intermediate between untreated mdx and weight | effect of Compound (I) on this parameter was greater than that of nandrolone and PDN |  |  | partial recovery |  | increase | tendency toward an increase |
